Active and inactive are the calls of the source. No cut-off for these calls is given here.
Assays:
HCT-116 [1] = experiment: cells; details: Homo sapiens
SW480 [2] = experiment: cells; details: Homo sapiens
HCT-116 [3] = experiment: Antiproliferative activity against human HCT116 cells assessed as reduction in cell viability at 1 to 100 uM incubated for 24 to 72 hrs by MTT assay; type: functional, cell-based; details: dose 1-100 µM, time 24-72 hrs
SW480 [4] = experiment: Antiproliferative activity against human SW480 cells assessed as reduction in cell viability at 1 to 100 uM incubated for 24 to 72 hrs by MTT assay; type: functional, cell-based; details: dose 1-100 µM, time 24-72 hrs
SW480 [5] = experiment: Induction of apoptosis in human SW480 cells assessed as late apoptotic cells at 10 uM incubated for 24 hrs by Annexin V-FITC/propidium iodide staining based flow cytometry analysis (reference value: 2.58%); type: functional
SW480 [6] = experiment: Antiproliferative activity against human SW480 cells assessed as reduction in cell viability incubated for 24 to 72 hrs by MTT assay; details: dose 1-100 µM, time 24-72 hrs
SW480 [7] = experiment: Effect on SHP-1 expression in human SW480 cells at 5 to 50 uM by Western blot analysis; type: functional, cell-based; details: dose 5-50 µM
SW480 [8] = experiment: Induction of apoptosis in human SW480 cells assessed as late apoptotic cells at 25 uM incubated for 24 hrs by Annexin V-FITC/propidium iodide staining based flow cytometry analysis (reference value: 2.58%); type: functional
SW480 [9] = experiment: Induction of apoptosis in human SW480 cells assessed as late apoptotic cells at 50 uM incubated for 24 hrs by Annexin V-FITC/propidium iodide staining based flow cytometry analysis (reference value: 2.58%); type: functional
SW480 [10] = experiment: Effect on PTP1B expression in human SW480 cells at 5 to 50 uM by Western blot analysis; type: functional, cell-based; details: dose 5-50 µM
SW480 [11] = experiment: Induction of apoptosis in human SW480 cells assessed as early apoptotic cells at 10 uM incubated for 24 hrs by Annexin V-FITC/propidium iodide staining based flow cytometry analysis (reference value: 0.52%); type: functional
SW480 [12] = experiment: Induction of apoptosis in human SW480 cells assessed as change in cell shape at 5 to 50 uM after 24 hrs by AO/EB staining based fluorescence inverted microscopic method; type: functional; details: dose 5-50 µM
SW480 [13] = experiment: Induction of apoptosis in human SW480 cells assessed as early apoptotic cells at 25 uM incubated for 24 hrs by Annexin V-FITC/propidium iodide staining based flow cytometry analysis (reference value: 0.52%); type: functional
SW480 [14] = experiment: Induction of apoptosis in human SW480 cells assessed as increase in number of cells with red dye at 5 to 50 uM after 24 hrs by AO/EB staining based fluorescence inverted microscopic method; type: functional, cell-based; details: dose 5-50 µM
SW480 [15] = experiment: Induction of apoptosis in human SW480 cells assessed as late apoptotic cells at 5 uM incubated for 24 hrs by Annexin V-FITC/propidium iodide staining based flow cytometry analysis (reference value: 2.58%); type: functional
SW480 [16] = experiment: Effect on TCPTP expression in human SW480 cells at 5 to 50 uM by Western blot analysis; type: functional, cell-based; details: dose 5-50 µM
SW480 [17] = experiment: Effect on SHP-2 expression in human SW480 cells at 5 to 50 uM by Western blot analysis; type: functional, cell-based; details: dose 5-50 µM
SW480 [18] = experiment: Antiproliferative activity against human SW480 cells assessed as reduction in cell viability at 1 to 100 uM by MTT assay; type: functional, cell-based; details: dose 1-100 µM, time 24-72 hrs, TDE = time-dependent effect
SW480 [19] = experiment: Induction of apoptosis in human SW480 cells assessed as early apoptotic cells at 5 uM incubated for 24 hrs by Annexin V-FITC/propidium iodide staining based flow cytometry analysis (reference value: 0.52%); type: functional
SW480 [20] = experiment: Down regulation of PRL-3 expression in human SW480 cells by Western blot analysis; type: functional, cell-based; details: dose 5-50 µM
SW480 [21] = experiment: Induction of apoptosis in human SW480 cells assessed as decrease in number of cells at 5 to 50 uM after 24 hrs by AO/EB staining based fluorescence inverted microscopic method; type: functional, cell-based; details: dose 5-50 µM
SW480 [22] = experiment: Induction of apoptosis in human SW480 cells assessed as early apoptotic cells at 50 uM incubated for 24 hrs by Annexin V-FITC/propidium iodide staining based flow cytometry analysis (reference value: 0.52%); type: functional
[23] = molecular target: T1, Protein tyrosine phosphatase type IVA 3 (Homo sapiens, UniProt O75365); experiment: Inhibition of human brain PRL-3 (1 to 168 residues) expressed in Escherichia coli BL21(DE3) cells using DiFMUP as substrate incubated for 1 hr by fluorimetric assay
T1 sequence (O75365 whole entry, the tested form may be a part): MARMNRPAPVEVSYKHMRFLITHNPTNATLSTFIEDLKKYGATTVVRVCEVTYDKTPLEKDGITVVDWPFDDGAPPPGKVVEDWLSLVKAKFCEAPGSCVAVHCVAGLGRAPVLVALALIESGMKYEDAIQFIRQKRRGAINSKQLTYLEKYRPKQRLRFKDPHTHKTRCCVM

[24] = molecular target: T1, Protein tyrosine phosphatase type IVA 3; experiment: Inhibition of PRL-3 (unknown origin) using DiFMUP as substrate incubated for 1 hr

SMILES	IC50 (HCT-116 [1]) [µM]	IC50 (SW480 [2]) [µM]	Activity (HCT-116 [3])	Activity (SW480 [4])	other results
O=C1NC(=S)S/C1=C\c1ccc(O)c(C(=O)O)c1	100	> 100	inactive	inactive	
O=C1NC(=S)S/C1=C\c1cc(Cl)ccc1C(F)(F)F	74.8	6.64			Activity (SW480 [5]): 5.91%; Activity (SW480 [6]): Dose-Dependent Effect; Activity (SW480 [7]): inactive; Activity (SW480 [8]): 6.23%; Activity (SW480 [9]): 11.72%; Activity (SW480 [10]): inactive; Activity (SW480 [11]): 1.47%; Activity (SW480 [12]): Active; Activity (SW480 [13]): 2.9%; Activity (SW480 [14]): Active; Activity (SW480 [15]): 4.13%; Activity (SW480 [16]): inactive; Activity (SW480 [17]): inactive; Activity (SW480 [18]): Tde; Activity (SW480 [19]): 0.92%; Activity (SW480 [20]): Dose-Dependent Effect; Activity (SW480 [21]): Active; Activity (SW480 [22]): 4.77%
COc1ccc(-c2cc(=O)c3c(O)cc(O)c(-c4cc(-c5cc(=O)c6c(O)cc(OC)cc6o5)ccc4OC)c3o2)cc1 [SCIADOPITISIN]					IC50 [23]: 46.2 µM
N#Cc1cc(/C=C2\SC(=S)NC2=O)ccc1F	> 100	31.4	inactive	inactive	
COc1cc(O)c2c(=O)cc(-c3ccc(OC)c(-c4c(O)cc(O)c5c(=O)cc(-c6ccc(O)cc6)oc45)c3)oc2c1 [GINKGETIN]					IC50 [23]: 25.8 µM

More lines, main results first:

IC50 (HCT-116 [1]) [µM]	IC50 (SW480 [2]) [µM]	SMILES	Activity (HCT-116 [3])	Activity (SW480 [4])	other results
16.9	86.1	O=C1NC(=S)S/C1=C\c1c(F)cc(F)cc1F	inactive	inactive	
16.9	66.7	O=C1NC(=S)S/C1=C\c1cc(Cl)ccc1Cl	inactive	inactive	IC50 [24]: 26 µM
> 100	78.7	Cn1ccnc1/C=C1\SC(=S)NC1=O	inactive	inactive	

— ChEMBL document CHEMBL4814023, “The dual inhibition against the activity and expression of tyrosine phosphatase PRL-3 from a rhodanine derivative” (Bioorg Med Chem Lett, 2021)
